Key:
[1] = Figure 1; against prior art agents such as Azone® and isopropyl alcohol (IPA)
in vivo = experiment: in vivo; set-up: species or system rhesus monkeys; details: female, rhesus monkey, iv, 0.05 mg, AUC Area Under the Curve after intravenous administration
Description: Serum concentration time profiles after intravenous administration: Four female rhesus monkeys, #388, #391, #423, and #430, were used in a cross over design for IV and pad bioavailability experiments. From each monkey, 7 ml of blood sample was removed on the previous day of the experiment, centrifuged to separate serum, and stored at -20°C till the analysis. This serum sample was used to make blanks and standards. […] The serum was separated from blood via centrifugation and stored at -20 °C till analysis.
Analysis of serum samples. […] The aqueous extracts were analyzed by an HPLC-Fluorescence method.

[2] = Serum concentration time profile and pharmacokinetics after transdermal pad administration; type: in vivo, rhesus monkeys; details: rhesus monkey, read-out: AUC Area Under the Curve after transdermal administration
Description: Serum concentration time profiles after transdermal pad administration. After overnight fasting, on the day of the experiment, monkeys were restrained in chairs and the chest areas were clipped to remove hair, avoiding any injury to the skin tissue. Skin surface was wiped with isopropyl alcohol swab and a 4 square centimeter portion of the pad was then applied to the chest area for 24 hours and was removed as described previously. Following the pad application, blood samples were removed at 0.00, 0.5, 1.00, 1.50, 3.00, 5.00, 7.00, 12.00, 24.00, 31.00, and 48.00 hours, centrifuged to separate serum and stored at -20 °C till the analysis.
Analysis of serum samples. Serum albuterol and internal standard bamethan sulphate were extracted into chloroform to remove polar interfering substances and reextracted in to the aqueous phase to eliminate nonpolar materials. The aqueous extracts were analyzed by an HPLC-Fluorescence method.

[3] = use for preterm labor; cited from earlier work

Row | effect of adjuvant agent on the flux of albuterol [1] | AUC (in vivo) [ng·h/mL] | AUC ([2]; Monkey #423, Transdermal dose 0.77 mg.Kg⁻¹) [ng·h/mL] | AUC ([2]; topical or ocular, Monkey #388, Transdermal dose 0.38 mg.Kg⁻¹) [ng·h/mL] | AUC ([2]; topical or ocular, Monkey #391, Transdermal dose 0.39 mg.Kg⁻¹) [ng·h/mL] | AUC ([2]; topical or ocular, Monkey #430, Transdermal dose 0.72 mg.Kg⁻¹) [ng·h/mL] | Structure (SMILES) | plasma levels needed for uterine relaxation [3] [nanograms per milliliter]
1 | most effective | – | – | – | – | – | CCO [ethanol] | –
2 | – | 70.7 | 1530 | 712 | 777 | 1260 | CC(C)(C)NCC(O)c1ccc(O)c(CO)c1 (stereo not shown) [albuterol] | 8 to 33

From patent publication EP0425968A2, “Novel multiple layer transdermal drug administration system” (G.D. Searle & Co., priority 1989, dated 1991)
